# From publication PMC5750218, “Protein-inspired antibiotics active against vancomycin- and daptomycin-resistant bacteria” (Nature Communications, 2018)
# Values joined by “and” are separate entries in the source; they are usually repeats but may differ in a detail not shown here. Equal values may be shown once. Read-outs that look alike come from different tables or passages of the source.
# Key:
# [1] = tested on: Methicillin-resistant S. aureus ATCC 43300; experiment: microbe, parasite or virus in culture; conditions: for MIC: Staphylococcus aureus; for MIC S. aureus ATCC 43300 MRSA, PS: polystyrene plate, no polysorbate-80
# Method in brief: (§1)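 Reported values are MICs read as the lowest concentration showing no visible growth after 24 h at 37 °C. Compounds were tested by twofold broth microdilution in Mueller Hinton broth over 8 to 0.003 µg mL^−1.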
# [2] = tested on: Vancomycin-resistant S. aureus NARSA VRS4; experiment: microbe, parasite or virus in culture; format: cell-based, Staphylococcus aureus; conditions: Staphylococcus aureus, VRSA; S. aureus NARSA VRS4; read-out: MIC VRSA
# [3] = tested on: Multi-drug-resistant S. pneumoniae ATCC 700677; experiment: microbe, parasite or virus in culture
# Method in brief: as §1
# [4] = tested on: Vancomycin-intermediate S. aureus NRS1; experiment: microbe, parasite or virus in culture
# Method in brief: as §1
# [5] = tested on: Vancomycin-resistant (VanA) Enterococcus faecium ATCC 51559; experiment: microbe, parasite or virus in culture
# Method in brief: as §1
# Cytotoxicity MTT assay [6] = format: cell-based, human; conditions: human
# Cytotoxicity MTT assay [7] = format: cell-based, human; conditions: human; remark: listed apart in the source
# Method in brief: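 HepG2 and HEK293 cells, 1.5 × 10^4 per well in DMEM with 1% FBS, were allowed to attach for 24 h, then exposed 24 h at 37 °C to compounds at 100 µM to 0.046 µM in threefold steps. MTT (0.4 mg mL^−1) was added for 2 h, and formazan in DMSO was read at 570 nm. Viability is given as percent of control, corrected for a positive control.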
# S. aureus ATCC 43300 = experiment: Membrane permeability assay (propidium iodide); format: cell-based, Staphylococcus aureus; conditions: for Fold higher propidium iodide fluorescence than oritavancin: 16 µg mL^−1, MRSA ATCC 43300
# Experimental: To evaluate the ability of the compounds to disrupt the cytoplasmic membrane integrity, the membrane impermeable fluorescent DNA intercalating dye propidium iodide (PI) was used. Early exponential phase cells were pelleted and washed twice in 10 mM HEPES buffer (pH 7.4) containing 50 µg mL^−1 of CaCl2 and 5 mM glucose, and then re-suspended in the same buffer (4 × 10^8 CFU mL^−1). Cell suspension was added to a 384-well black walled polystyrene plate (Corning, CLS3573) containing compounds, giving a final concentration of 16 µg mL^−1. After 1 h incubation at 37 °C, 5 µg mL^−1 of PI was added and fluorescence was monitored for 90 min using a Tecan Infinite® m1000 Pro Multi-mode reader (excitation/emission 535/620 nm). Data were corrected by subtraction of fluorescence signal arising from untreated cells in the presence of PI. […] Each sample was tested in quadruplicate and independent assays were performed twice showing similar results. Data was analysed and presented using Prism software.
# [8] = S. aureus ATCC 43300, NBS plates, MHB, 24 h, substance alone
structure (smiles),measurement,setting,value
"CCCCCCCCCC(=O)N[C@@H](Cc1c[nH]c2ccccc12)C(=O)N[C@H](CC(N)=O)C(=O)N[C@@H](CC(=O)O)C(=O)N[C@@H]1C(=O)NCC(=O)N[C@@H](CCCN)C(=O)N[C@@H](CC(=O)O)C(=O)N[C@H](C)C(=O)N[C@@H](CC(=O)O)C(=O)NCC(=O)N[C@H](CO)C(=O)N[C@@H]([C@H](C)CC(=O)O)C(=O)N[C@@H](CC(=O)c2ccccc2N)C(=O)O[C@@H]1C [Compound 4, Daptomycin]",MIC,"[1]; ATCC43300 / MRSA, 24 h, read-out: MIC MRSA",2 µg/mL
same,MIC,"[1]; ATCC43300|MRSA, read-out: MIC S. aureus ATCC 43300 MRSA, NBS",1 µg/mL
same,MIC,"[1]; ATCC43300|MRSA, read-out: MIC S. aureus ATCC 43300 MRSA, PP",1 µg/mL
same,MIC,"[1]; ATCC43300|MRSA, read-out: MIC S. aureus ATCC 43300 MRSA, PS",1 µg/mL
same,MIC,"[1]; ATCC43300|MRSA, read-out: MIC S. aureus ATCC 43300 MRSA, PS+P-80",1 µg/mL
same,MIC,[2],3 µg/mL
same,MIC,"[3]; Streptococcus pneumoniae, ATCC700677, read-out: MIC MDR S.P.",2 µg/mL
same,MIC,"[4]; Staphylococcus aureus, NRS1 / VISA, read-out: MIC VISA",12 µg/mL
same,MIC,"[5]; Enterococcus faecium, ATCC51559 / VRE, read-out: MIC VRE",16 µg/mL
same,CC50 at 24 h,Cytotoxicity MTT assay [6],> 500 µM
same,CC50 at 24 h,Cytotoxicity MTT assay [7],> 500 µM
same,Fold higher propidium iodide fluorescence than oritavancin,S. aureus ATCC 43300; listed as Daptomycin,4–6 fold
same,Fold higher propidium iodide fluorescence than oritavancin,S. aureus ATCC 43300; listed as daptomycin,approximately 6 fold
"CCCCCCCCCCC(=O)N[C@@H](CCCCN)C(=O)N[C@@H](CCCCN)C(=O)N[C@@H](CCCCNC(=O)[C@H]1NC(=O)[C@H]2NC(=O)[C@H](NC(=O)[C@@H]3NC(=O)[C@H](CC(N)=O)NC(=O)[C@H](NC(=O)[C@@H](CC(C)C)NC)[C@H](O)c4ccc(c(Cl)c4)Oc4cc3cc(c4O[C@@H]3O[C@H](CO)[C@@H](O)[C@H](O)[C@H]3O[C@H]3C[C@](C)(N)[C@H](O)[C@H](C)O3)Oc3ccc(cc3Cl)[C@H]2O)c2ccc(O)c(c2)-c2c(O)cc(O)cc21)C(N)=O [Compound 21, nC10CO-KK-K(Vancomycin)-NH2]",MIC MRSA,[1]; [8],0.007 µg/mL
same,MIC MDR S.P.,[3]; ATCC 700677,0.015 µg/mL
same,MIC VISA,[4]; Vancomycin-intermediate NRS1,0.06 µg/mL
same,MIC VRE,[5]; ATCC 51559,2 µg/mL
same,CC50 at 24 h,Cytotoxicity MTT assay [6],131 µM
same,CC50 at 24 h,Cytotoxicity MTT assay [7],113 µM
"CCCCCCCCCCCCCC(=O)N[C@@H](CCCCN)C(=O)N[C@@H](CCCCN)C(=O)N[C@@H](CCCCN)C(=O)N[C@@H](CCCCNC(=O)[C@H]1NC(=O)[C@H]2NC(=O)[C@H](NC(=O)[C@@H]3NC(=O)[C@H](CC(N)=O)NC(=O)[C@H](NC(=O)[C@@H](CC(C)C)NC)[C@H](O)c4ccc(c(Cl)c4)Oc4cc3cc(c4O[C@@H]3O[C@H](CO)[C@@H](O)[C@H](O)[C@H]3O[C@H]3C[C@](C)(N)[C@H](O)[C@H](C)O3)Oc3ccc(cc3Cl)[C@H]2O)c2ccc(O)c(c2)-c2c(O)cc(O)cc21)C(=O)O [Compound 17, nC13CO-KKK-K(Vancomycin)-OH]","MIC S. aureus ATCC 43300 MRSA, NBS",[1]; ATCC 43300,≤ 0.016 µg/mL
same,"MIC S. aureus ATCC 43300 MRSA, PP",[1]; ATCC 43300,1 µg/mL
same,"MIC S. aureus ATCC 43300 MRSA, PS+P-80",[1]; ATCC 43300,≤ 0.016 µg/mL
same,MIC MRSA,"[1]; ATCC 43300, 24 h",<0.003 µg/mL
same,"MIC S. aureus ATCC 43300 MRSA, PS",[1],1 µg/mL and 1 to 2 µg/mL
same,MIC MDR S.P.,[3]; ATCC 700677,<0.003 µg/mL
same,MIC VISA,[4]; Vancomycin-intermediate NRS1,0.03 µg/mL
same,MIC VRE,[5]; ATCC 51559,0.125 µg/mL
same,CC50 at 24 h,Cytotoxicity MTT assay [6],15 µM
same,CC50 at 24 h,Cytotoxicity MTT assay [7],19 µM
same,Membrane permeabilisation (propidium iodide fluorescence),S. aureus ATCC 43300,comparable fluorescence intensity to oritavancin
"CN[C@H]1C(=O)N[C@@H]2Cc3ccc(cc3)Oc3cc4cc(c3O[C@@H]3O[C@H](C(=O)O)[C@@H](O)[C@H](O)[C@H]3NC(=O)CCCCCCCCC(C)C)Oc3ccc(cc3Cl)[C@@H](O)[C@@H]3NC(=O)[C@H](NC(=O)[C@@H]4NC(=O)[C@@H](NC2=O)c2cc(cc(O)c2Cl)Oc2cc1ccc2O)c1ccc(O)c(c1)-c1c(O[C@H]2O[C@H](CO)[C@@H](O)[C@H](O)[C@@H]2O)cc(O)cc1[C@@H](C(=O)NCCCN(C)C)NC3=O [Compound 3, Dalbavancin]",MIC MRSA,[1]; [8],0.06 µg/mL and 0.03 µg/mL
same,"MIC S. aureus ATCC 43300 MRSA, NBS",[1]; non-binding surface plate,≤ 0.016 µg/mL
same,"MIC S. aureus ATCC 43300 MRSA, PP",[1]; polypropylene plate,0.063 µg/mL
same,"MIC S. aureus ATCC 43300 MRSA, PS+P-80",[1]; polystyrene plate with 0.002% polysorbate-80,≤ 0.016 µg/mL
same,"MIC S. aureus ATCC 43300 MRSA, PS",[1],0.25 µg/mL
same,MIC MDR S.P.,[3]; S. pneumoniae ATCC 700677,0.09 µg/mL
same,MIC VISA,[4]; S. aureus NRS1,1 µg/mL
same,MIC VRE,"[5]; E. faecium MDR VanA ATCC 51559, substance alone",>8 µg/mL
same,Membrane permeabilisation (propidium iodide fluorescence),S. aureus ATCC 43300,little to no effect
